Experiments:
CREB genomic binding = test: CREB ChIP-Seq in KG-1 cells; type: cell-based; settings: 5 μM, 6 hours
Protocol: For Chip-Seq experiments, KG-1 cells were treated with 5 μM Compound A or DMSO for 6 hours. Cells were cross-linked with 1% formaldehyde at room temperature for 10 min and then incubated with […] for 5 min. After cross-linking, chromatin was digested by Micrococcal nuclease and then sonicated using SimpleChIP® Plus Enzymatic Chromatin IP Kit (Cell Signaling, Danvers, Mass.) following the manufacturer's protocol. Chromatin immunoprecipitations were carried out with anti-CREB antibody (Millipore, Billerica, Mass.) or a control IgG (Santa Cruz Biotechnology). The captured immunocomplexes containing bound transcriptional DNA fragments were eluted, with recovered DNA fragments used for PCR amplification. For RNA-Seq experiments, KG-1 cells were treated with Compound A (5 μM) or 0.1% DMSO for 12 hours. RNA was prepared using the Aurum Total RNA Mini Kit (Bio-Rad). Sample libraries were run using the Illumina sequencing platform. Two hundred million reads were collected on two biological replicates of the experiment. […]
To determine the functional specificity and downstream effects of Compound A in AML, the CREB transcriptome was first defined in KG-1 cells using CREB chromatin immunoprecipitation followed by high-throughput sequencing (CREB ChIP-Se). […] In this way, the ‘on-target’ effects of Compound A could be assessed.

HL-60 cells = test: HL-60 viability, combination of Compound A with kinase inhibitors; type: cell-based, human; settings: 48 hours
[1] = test system: CREB target genes in KG-1 and HL-60 cells; test: RT-PCR of target genes in KG-1 and HL-60 cells; type: cell-based
Protocol: Total RNA was isolated using the Aurum RNA Isolation Mini Kit, and the iScript cDNA Synthesis Kit was used to prepare samples for qPCR (Bio-Rad). PCR was performed on the CFX384 Real-Time System (Bio-Rad) and results were analyzed using the Livak method. For analysis of RNA-seq data as target genes of known transcription factors, a curated list of all human target genes was extracted from the TRANSFAC Pro database.
To assess for potential ‘off-target’ effects of Compound A, the RNA-Seq gene expression profiles of other transcription factors that bind CBP, including Rel, RelA, RelB, Foxo3, Foxo1 and Myb, were analyzed. […] PLoS One. 2011; 6(12):e28712) (FIG. 9, panel E).

[2] = test system: primary AML patient bone marrow samples; test: Single cell mass cytometry (CyTOF) of primary AML patient samples; type: cell-based, human
Protocol: These were stained for viability using cisplatin. Cells were fixed with 1.6% PFA (Electron Microscopy Sciences) for 10 min and washed with cell staining media (CSM). Fc receptor block was performed using Human TruStain FcX (Biolegend) following manufacturer's instructions. Cells were stained for surface proteins at room temperature for 30 min. Following staining, cells were washed twice with CSM and permeabilized with methanol pre-cooled to 4° C. for 10 min. Cells were then washed twice and stained for intracellular proteins for 30 min at room temperature. Surface and intracellular staining cocktails are listed in supplementary methods. Cells were washed and stained with 1 mL of 2000× iridium DNA intercalator (diluted 1:5000 in PBS with 1.6% PFA; DVS Sciences) overnight at 4° C. Data were acquired using internal metal isotope bead standards as previously described (Finck et al., “Normalization of mass cytometry data with bead standards.” Cytometry A. 2013; 83(5):483-94). Cell events were acquired at approximately 500 events per second on a CyTOF I (DVS Sciences/Fluidigm). All antibodies were also purchased from DVS Sciences/Fluidigm. Each patient sample was individually normalized to the internal bead standards prior to analysis. […]

## N#Cc1ccc(NC(=O)c2cc3ccccc3cc2O)cc1 [Compound A, N-(4-cyanophenyl)-3-hydroxy-2-naphthamide]
CREB genomic binding
  CREB genomic binding: did not change
HL-60 cells; Compound A alone
  viability: 87.4±7.3%
HL-60 cells; Compound A combined with ERK inhibitor
  viability: 55.3±3.4%
HL-60 cells; Compound A combined with RSK inhibitor
  viability: 49.5±2.3%
[1]
  Myb-driven gene expression (SP3, FPR1, PRODH, SLC34A2): No changes in gene expression were observed
[1]; conditions as for RNA-Seq
  CREB target gene expression (qPCR): consistently reduced CREB target gene expression
[2]; patient sample 97, CD34+CD38− subpopulation
  cells in S-phase (CyTOF): < 0.1 % of total
[2]; patient samples 96 and 186, all cell subpopulations, 2 µM, 48 hours
  Bcl-2 expression (CyTOF): reduced Bcl-2 expression
